Reference: article PMC11277489, “Novel Piperazine Derivatives of Vindoline as Anticancer Agents” (International Journal of Molecular Sciences, 2024)

Experiments:
[1] = test system: HL-60(TB); assay: NCI60 one-dose screen (10 μM), Leukemia; assay type: cell-based; conditions: Homo sapiens; 10 μM; HL-60(TB), Leukemia; read-out: Growth percent rate
[2] = test system: K-562; assay: NCI60 one-dose screen (10 μM), Leukemia; assay type: cell-based; conditions: Homo sapiens, K562; 10 μM; K-562, Leukemia; read-out: Growth percent rate
[3] = test system: HS 578T; assay: NCI60 one-dose screen (10 μM), Breast Cancer; assay type: cell-based; conditions: Homo sapiens; 10 μM; HS 578T, Breast Cancer; read-out: Growth percent rate
[4] = test system: UACC-257; assay: NCI60 one-dose screen (10 μM), Melanoma; assay type: cell-based; conditions: Homo sapiens; 10 μM; UACC-257, Melanoma; read-out: Growth percent rate
[5] = test system: NCI-H522; assay: NCI60 one-dose screen (10 μM), Non-small Cell Lung Cancer; assay type: cell-based; conditions: Homo sapiens; 10 μM; NCI-H522, Non-small Cell Lung Cancer; read-out: Growth percent rate
[6] = test system: RXF 393; assay: NCI60 one-dose screen (10 μM), Renal Cancer; assay type: cell-based, human; conditions: Homo sapiens; 10 μM; RXF 393, Renal Cancer; read-out: Growth percent rate
[7] = test system: IGROV1; assay: NCI60 one-dose screen (10 μM), Ovarian Cancer; assay type: cell-based; conditions: Homo sapiens, IGROV-1; 10 μM; IGROV1, Ovarian Cancer; read-out: Growth percent rate
[8] = test system: NCI-H322M; assay: NCI60 one-dose screen (10 μM), Non-small Cell Lung Cancer; assay type: cell-based; conditions: Homo sapiens, 10 μM, Non-small Cell Lung Cancer, read-out: Growth percent rate
[9] = test system: EKVX; assay: as above; assay type: cell-based; conditions: Homo sapiens, 10 μM, Non-small Cell Lung Cancer, read-out: Growth percent rate
[10] = test system: SF-268; assay: NCI60 one-dose screen (10 μM), CNS Cancer; assay type: cell-based; conditions: Homo sapiens; 10 μM; SF-268, CNS Cancer; read-out: Growth percent rate
[11] = test system: HCT-15; assay: NCI60 one-dose screen (10 μM), Colon Cancer; assay type: cell-based; conditions: Homo sapiens; 10 μM; HCT-15, Colon Cancer; read-out: Growth percent rate
[12] = test system: A498; assay: NCI60 one-dose screen (10 μM), Renal Cancer; assay type: cell-based; conditions: Homo sapiens; 10 μM; A498, Renal Cancer; read-out: Growth percent rate
[13] = test system: SN12C; assay: NCI60 one-dose screen (10 μM), Renal Cancer; assay type: cell-based; conditions: Homo sapiens, 10 μM, Renal Cancer, read-out: Growth percent rate
[14] = test system: NCI-H460; assay: NCI60 one-dose screen (10 μM), Non-small Cell Lung Cancer; assay type: cell-based; conditions: Homo sapiens; 10 μM; NCI-H460, Non-small Cell Lung Cancer; read-out: Growth percent rate
[15] = test system: CAKI-1; assay: NCI60 one-dose screen (10 μM), Renal Cancer; assay type: cell-based; conditions: Homo sapiens; 10 μM; CAKI-1, Renal Cancer; read-out: Growth percent rate
[16] = test system: 60 human tumor cell lines (NCI60); assay: NCI60 one-dose screen (10 μM), whole panel; assay type: cell-based; conditions: for activity at 10 µM: mean over 60 human cancer cell lines, read-out: Growth percent rate, Mean
[17] = test system: SK-MEL-28; assay: NCI60 one-dose screen (10 μM), Melanoma; assay type: cell-based; conditions: Homo sapiens; 10 μM; SK-MEL-28, Melanoma; read-out: Growth percent rate
[18] = test system: SW-620; assay: NCI60 one-dose screen (10 μM), Colon Cancer; assay type: cell-based; conditions: Homo sapiens; 10 μM; SW-620, Colon Cancer; read-out: Growth percent rate
[19] = test system: COLO 205; assay: NCI60 one-dose screen (10 μM), Colon Cancer; assay type: cell-based, human; conditions: Homo sapiens; 10 μM; COLO 205, Colon Cancer; read-out: Growth percent rate
[20] = test system: MDA-MB-435; assay: NCI60 one-dose screen (10 μM), Melanoma; assay type: cell-based; conditions: Homo sapiens; 10 μM; MDA-MB-435, Melanoma; read-out: Growth percent rate
[21] = test system: OVCAR-3; assay: NCI60 one-dose screen (10 μM), Ovarian Cancer; assay type: cell-based; conditions: Homo sapiens; 10 μM; OVCAR-3, Ovarian Cancer; read-out: Growth percent rate
[22] = test system: U251; assay: NCI60 one-dose screen (10 μM), CNS Cancer; assay type: cell-based; conditions: Homo sapiens, U-251; 10 μM; U251, CNS Cancer; read-out: Growth percent rate
[23] = test system: SF-295; assay: NCI60 one-dose screen (10 μM), CNS Cancer; assay type: cell-based; conditions: Homo sapiens; 10 μM; SF-295, CNS Cancer; read-out: Growth percent rate
[24] = test system: LOX IMVI; assay: NCI60 one-dose screen (10 μM), Melanoma; assay type: cell-based, human; conditions: Homo sapiens; 10 μM; LOX IMVI, Melanoma; read-out: Growth percent rate
[25] = test system: SF-539; assay: NCI60 one-dose screen (10 μM), CNS Cancer; assay type: cell-based, human; conditions: Homo sapiens; 10 μM; SF-539, CNS Cancer; read-out: Growth percent rate
[26] = test system: MOLT-4; assay: NCI60 one-dose screen (10 μM), Leukemia; assay type: cell-based, human; conditions: for activity at 10 µM: Homo sapiens, MOLT-4, Leukemia, read-out: Growth percent rate
[27] = test system: A549/ATCC; assay: NCI60 one-dose screen (10 μM), Non-small Cell Lung Cancer; assay type: cell-based; conditions: Homo sapiens; 10 μM; A549/ATCC, Non-small Cell Lung Cancer; read-out: Growth percent rate
[28] = test system: CCRF-CEM; assay: NCI60 one-dose screen (10 μM), Leukemia; assay type: cell-based; conditions: Homo sapiens, 10 μM, Leukemia, read-out: Growth percent rate
[29] = test system: SNB-75; assay: NCI60 one-dose screen (10 μM), CNS Cancer; assay type: cell-based, human; conditions: Homo sapiens; 10 μM; SNB-75, CNS Cancer; read-out: Growth percent rate
[30] = test system: RPMI-8226; assay: NCI60 one-dose screen (10 μM), Leukemia; assay type: cell-based; conditions: Homo sapiens; 10 μM; RPMI-8226, Leukemia; read-out: Growth percent rate
[31] = test system: NCI-H23; assay: NCI60 one-dose screen (10 μM), Non-small Cell Lung Cancer; assay type: cell-based; conditions: Homo sapiens; 10 μM; NCI-H23, Non-small Cell Lung Cancer; read-out: Growth percent rate
[32] = test system: OVCAR-8; assay: NCI60 one-dose screen (10 μM), Ovarian Cancer; assay type: cell-based; conditions: Homo sapiens; 10 μM; OVCAR-8, Ovarian Cancer; read-out: Growth percent rate
[33] = test system: HOP-62; assay: NCI60 one-dose screen (10 μM), Non-small Cell Lung Cancer; assay type: cell-based; conditions: Homo sapiens; 10 μM; HOP-62, Non-small Cell Lung Cancer; read-out: Growth percent rate
[34] = test system: ACHN; assay: NCI60 one-dose screen (10 μM), Renal Cancer; assay type: cell-based; conditions: Homo sapiens, 10 μM, Renal Cancer, read-out: Growth percent rate
[35] = test system: KM12; assay: NCI60 one-dose screen (10 μM), Colon Cancer; assay type: cell-based, human; conditions: Homo sapiens; 10 μM; KM12, Colon Cancer; read-out: Growth percent rate
[36] = test system: MCF7; assay: NCI60 one-dose screen (10 μM), Breast Cancer; assay type: cell-based; conditions: Homo sapiens; 10 μM; MCF7, Breast Cancer; read-out: Growth percent rate
[37] = test system: HCT-116; assay: NCI60 one-dose screen (10 μM), Colon Cancer; assay type: cell-based; conditions: Homo sapiens; 10 μM; HCT-116, Colon Cancer; read-out: Growth percent rate
[38] = test system: TK-10; assay: NCI60 one-dose screen (10 μM), Renal Cancer; assay type: cell-based; conditions: Homo sapiens; 10 μM; TK-10, Renal Cancer; read-out: Growth percent rate
[39] = test system: OVCAR-4; assay: NCI60 one-dose screen (10 μM), Ovarian Cancer; assay type: cell-based; conditions: Homo sapiens; 10 μM; OVCAR-4, Ovarian Cancer; read-out: Growth percent rate
[40] = test system: MALME-3M; assay: NCI60 one-dose screen (10 μM), Melanoma; assay type: cell-based; conditions: Homo sapiens; 10 μM; MALME-3M, Melanoma; read-out: Growth percent rate
[41] = test system: 786–0; assay: NCI60 one-dose screen (10 μM), Renal Cancer; assay type: cell-based; conditions: Homo sapiens; 10 μM; 786-0, Renal Cancer; read-out: Growth percent rate
[42] = test system: SK-MEL-2; assay: NCI60 one-dose screen (10 μM), Melanoma; assay type: cell-based; conditions: Homo sapiens; 10 μM; SK-MEL-2, Melanoma; read-out: Growth percent rate

`CCC12C=CCN3CCC4(c5cc(NC(=O)CN6CCN(C(c7ccc(F)cc7)c7ccc(F)cc7)CC6)c(OC)cc5N(C)C4C(O)(C(=O)OC)C1OC(C)=O)C32` (centres unmarked) [Compound 20] gave an activity at 10 µM [1] of -10.8%, an activity at 10 µM [2] of 17% and an activity at 10 µM [3] of 15.5%. It also gave an activity at 10 µM [4] of 37.9%, an activity at 10 µM [5] of 11% and an activity at 10 µM [6] of -44%. The activity at 10 µM [7] was 44.9%, the activity at 10 µM [8] was 42.8% and the activity at 10 µM [9] was 16.2%. For the same compound, the activity at 10 µM [10] was 28.1%, the activity at 10 µM [11] was 18.3% and the activity at 10 µM [12] was 35.6%. For the same compound, the activity at 10 µM [13] was 26.9%, the activity at 10 µM [14] was 17.3% and the activity at 10 µM [15] was 27.7%. For the same compound, the “antiproliferative effect (in words)” value ([16]; 10 μM one-dose, NCI60) was “moderate antiproliferative activity on some colon, CNS, and melanoma cell lines”, the activity at 10 µM [16] was 12.2% and the activity at 10 µM [17] was 51.2%. It also gave an activity at 10 µM [18] of 34.2%, an activity at 10 µM [19] of -60.5% and an activity at 10 µM [20] of 22.2%. For the same compound, the activity at 10 µM [21] was 36.5%, the activity at 10 µM [22] was 31.7% and the activity at 10 µM [23] was 13.8%. It also gave an activity at 10 µM [24] of -61%, an activity at 10 µM [25] of -61.1% and an activity at 10 µM [26] of 1.17%. It also gave an activity at 10 µM [27] of 31%, an activity at 10 µM [28] of -18.9% and an activity at 10 µM [29] of -60.5%. The activity at 10 µM [30] was -2.68%, the activity at 10 µM [31] was 38% and the activity at 10 µM [32] was 45.6%. The activity at 10 µM [33] was 60.3%, the activity at 10 µM [34] was 11.4% and the activity at 10 µM [35] was 20.2%. The activity at 10 µM [36] was 5.47%, the activity at 10 µM [37] was 27.9% and the activity at 10 µM [38] was 37.6%. For the same compound, the activity at 10 µM [39] was 31.4%, the activity at 10 µM [40] was 0% and the activity at 10 µM [41] was 34%. The activity at 10 µM [42] was -34.7%.

With `CC[C@]12C=CCN3CC[C@@]4(c5ccc(OC)cc5N(C)[C@H]4[C@@](O)(C(=O)OC)[C@@H]1OC(=O)CCC(=O)N1CCN(C(c4ccc(F)cc4)c4ccc(F)cc4)CC1)[C@@H]32` [Compound 31] the activity at 10 µM [1] was -98.4%, the activity at 10 µM [2] was 7.65% and the activity at 10 µM [3] was -32.6%. The activity at 10 µM [4] was -30.8%, the activity at 10 µM [5] was -22.2% and the activity at 10 µM [6] was -56.3%. The activity at 10 µM [7] was -92.2%, the activity at 10 µM [8] was -0.86% and the activity at 10 µM [9] was -17.8%. It also gave an activity at 10 µM [10] of 7.32%, an activity at 10 µM [11] of 3.11% and an activity at 10 µM [12] of -61.6%. For the same compound, the activity at 10 µM [13] was -89.1%, the activity at 10 µM [14] was -60.9% and the activity at 10 µM [15] was 1.73%. The activity at 10 µM [16] was -41.8%, the activity at 10 µM [17] was -6.67% and the activity at 10 µM [18] was -37%. For the same compound, the activity at 10 µM [19] was -45%, the activity at 10 µM [20] was -23.3% and the activity at 10 µM [21] was -71%. It also gave an activity at 10 µM [22] of -15.1%, an activity at 10 µM [23] of -61.1% and an activity at 10 µM [24] of -56%. The activity at 10 µM [25] was -38.4%, the growth percent rate ([26]; 10 μM one-dose, MOLT-4 leukemia, negative = lethality) was −98.81% and the activity at 10 µM [26] was -98.8%. The activity at 10 µM [27] was 1.83%, the activity at 10 µM [28] was -81.9% and the activity at 10 µM [29] was -43.5%. For the same compound, the activity at 10 µM [30] was -98.1%, the activity at 10 µM [31] was -23.4% and the activity at 10 µM [32] was -13.2%. For the same compound, the activity at 10 µM [33] was -57%, the activity at 10 µM [34] was -35.8% and the activity at 10 µM [35] was -50.8%. The activity at 10 µM [36] was -28.7%, the activity at 10 µM [37] was -32.4% and the activity at 10 µM [38] was -32.1%. The activity at 10 µM [39] was -34.6%, the activity at 10 µM [40] was -16.6% and the activity at 10 µM [41] was -40.3%. It also gave an activity at 10 µM [42] of -85.4%.
